Measurements taken from US11957687B2 (REGENERON PHARMACEUTICALS, INC., priority 2019, dated 2024).

Target: HSD17B13 (Homo sapiens (Human), UniProt Q7Z5P4)
Test: HSD17B13 enzymatic inhibition assay (150 nM or 50 nM HSD17B13)
Assay type: biochemical
Conditions: 50 nM HSD17B13; read-out: Inhibition of 50 nM of HSD17B13 IC50

Chain of HSD17B13 (Q7Z5P4 other isoform, or with tags, fused parts or gaps): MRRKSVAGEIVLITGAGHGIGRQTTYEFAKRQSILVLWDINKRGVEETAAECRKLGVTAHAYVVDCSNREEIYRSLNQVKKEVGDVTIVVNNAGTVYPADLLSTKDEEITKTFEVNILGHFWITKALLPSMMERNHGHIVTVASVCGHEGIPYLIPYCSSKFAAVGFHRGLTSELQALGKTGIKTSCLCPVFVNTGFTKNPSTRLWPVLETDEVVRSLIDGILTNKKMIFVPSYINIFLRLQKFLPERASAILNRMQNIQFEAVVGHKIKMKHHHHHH

IC50	SMILES
2710 nM	O=C(NC1c2ccccc2Sc2ccccc21)c1ccc(C(F)F)[nH]c1=O [Compound 277, 6-(difluoromethyl)-2-oxo-N-(9H-thioxanthen-9-yl)-1,2-dihydropyridine-3-carboxamide]
2000 nM	O=C(NC1c2ccccc2Oc2ccccc21)c1ccc(C(F)F)[nH]c1=O [Compound 278, 6-(difluoromethyl)-2-oxo-N-(9H-xanthen-9-yl)-1,2-dihydropyridine-3-carboxamide]
180 nM	Cc1ccc2c(c1)Oc1ccccc1C2NC(=O)c1ccc(C(F)F)[nH]c1=O (centres unmarked) [Compound 279, 6-(difluoromethyl)-N-(3-methyl-9H-xanthen-9-yl)-2-oxo-1,2-dihydropyridine-3-carboxamide]
110 nM	Cc1ccc2c(c1)Oc1cc(C)ccc1C2NC(=O)c1ccc(C(F)F)[nH]c1=O [Compound 280, 6-(difluoromethyl)-N-(3,6-dimethyl-9H-xanthen-9-yl)-2-oxo-1,2-dihydropyridine-3-carboxamide]
1880 nM	Cc1ccc2c(c1)C(NC(=O)c1ccc(C(F)F)[nH]c1=O)c1ccccc1S2 (centres unmarked) [Compound 281, 6-(difluoromethyl)-N-(2-methyl-9H-thioxanthen-9-yl)-2-oxo-1,2-dihydropyridine-3-carboxamide]
4760 nM	COc1ccc(-c2nc(SCc3cccc(C(F)(F)F)c3)[nH]c(=O)c2C#N)cc1 [Compound 283, 4-(4-methoxyphenyl)-6-oxo-2-((3-(trifluoromethyl)benzyl)thio)-1,6-dihydropyrimidine-5-carbonitrile]
60 nM	CCCC1Cc2cc(C)ccc2C1NC(=O)c1ccc(C(F)(F)F)[nH]c1=O (centres unmarked) [Compound 287, N-(5-methyl-2-propyl-2,3-dihydro-1H-inden-1-yl)-2-oxo-6-(trifluoromethyl)-1,2-dihydropyridine-3-carboxamide]
190 nM	Cc1ccc2c(c1)C(NC(=O)c1ccc(C(F)(F)F)[nH]c1=O)C(C)C2 (centres unmarked) [Compound 288, N-(2,6-dimethyl-2,3-dihydro-1H-inden-1-yl)-2-oxo-6-(trifluoromethyl)-1,2-dihydropyridine-3-carboxamide]
80 nM	CCC1Cc2ccc(C)cc2C1NC(=O)c1ccc(C(F)(F)F)[nH]c1=O (centres unmarked) [Compound 290, N-(2-ethyl-6-methyl-2,3-dihydro-1H-inden-1-yl)-2-oxo-6-(trifluoromethyl)-1,2-dihydropyridine-3-carboxamide]
220 nM	COc1ccc2c(c1)CCC(C)C2NC(=O)c1ccc(C(F)(F)F)[nH]c1=O (stereo not drawn) [Compound 292, N-(6-methoxy-2-methyl-1,2,3,4-tetrahydronaphthalen-l-yl)-2-oxo-6-(trifluoromethyl)-1,2-dihydropyridine-3-carboxamide]
170 nM	Cc1ccc2c(c1)CC(C)C2NC(=O)c1ccc(C(F)(F)F)[nH]c1=O (centres unmarked) [Compound 296, N-(2,5-dimethyl-2,3-dihydro-1H-inden-1-yl)-2-oxo-6-(trifluoromethyl)-1,2-dihydropyridine-3-carboxamide]

The next lines start with the compound.

SMILES	IC50
COc1c(C)ccc2c1CCC2NC(=O)c1ccc(C(F)(F)F)[nH]c1=O (centres unmarked) [Compound 257, N-(4-methoxy-5-methyl-2,3-dihydro-1H-inden-1-yl)-2-oxo-6-(trifluoromethyl)-1,2-dihydropyridine-3-carboxamide]	7130 nM
Cc1ccc2c(c1)Sc1cc(C)ccc1C2NC(=O)c1cc(OC2CCOCC2)c(C(F)(F)F)[nH]c1=O [Compound 258, N-(3,6-dimethyl-9H-thioxanthen-9-yl)-2-oxo-5-((tetrahydro-2H-pyran-4-yl)oxy)-6-(trifluoromethyl)-1,2-dihydropyridine-3-carboxamide]	10 nM
COc1ccc2c(c1)Oc1cc(OC)ccc1C2NC(=O)c1cc(OC2CCOCC2)c(C(F)(F)F)[nH]c1=O [Compound 259, N-(3,6-dimethoxy-9H-xanthen-9-yl)-2-oxo-5-((tetrahydro-2H-pyran-4-yl)oxy)-6-(trifluoromethyl)-1,2-dihydropyridine-3-carboxamide]	70 nM
O=C(NC1CCCc2c(O)cccc21)c1ccc(SCc2cccc(C(F)(F)F)c2)[nH]c1=O (centres unmarked) [Compound 261, N-(5-hydroxy-1,2,3,4-tetrahydronaphthalen-1-yl)-2-oxo-6-((3-(trifluoromethyl)benzyl)thio)-1,2-dihydropyridine-3-carboxamide]	6870 nM
O=C(N[C@@H]1C[C@H](CCO)Cc2ccccc21)c1ccc(C(F)(F)F)[nH]c1=O [Compound 262, N-((1R,3R)-3-(2-hydroxyethyl)-1,2,3,4-tetrahydronaphthalen-1-yl)-2-oxo-6-(trifluoromethyl)-1,2-dihydropyridine-3-carboxamide]	980 nM
O=C(N[C@@H]1C[C@@H](CCO)Cc2ccccc21)c1ccc(C(F)(F)F)[nH]c1=O [Compound 263, N-((1R,3S)-3-(2-hydroxyethyl)-1,2,3,4-tetrahydronaphthalen-1-yl)-2-oxo-6-(trifluoromethyl)-1,2-dihydropyridine-3-carboxamide]	8460 nM
O=C(NC1CC(CO)Cc2ccccc21)c1ccc(C(F)(F)F)[nH]c1=O (stereo not drawn) [Compound 264, N-(3-(hydroxymethyl)-1,2,3,4-tetrahydronaphthalen-l-yl)-2-oxo-6-(trifluoromethyl)-1,2-dihydropyridine-3-carboxamide]	9780 nM
CCC[C@H]1C[C@@H](NC(=O)c2cc(-c3ccccc3)c(C(F)(F)F)[nH]c2=O)c2cc(C)ccc2N1 [Compound 265, N-((2S,4R)-6-methyl-2-propyl-1,2,3,4-tetrahydroquinolin-4-yl)-2-oxo-5-phenyl-6-(trifluoromethyl)-1,2-dihydropyridine-3-carboxamide]	80 nM
Cc1ccc2c(c1N)CCC2NC(=O)c1ccc(C(F)(F)F)[nH]c1=O (centres unmarked) [Compound 266, N-(4-amino-5-methyl-2,3-dihydro-1H-inden-1-yl)-2-oxo-6-(trifluoromethyl)-1,2-dihydropyridine-3-carboxamide]	640 nM
C=CCc1cc(NC(=O)c2ccc(C(F)(F)F)[nH]c2=O)cc(CC=C)n1 [Compound 267, N-(2,6-diallylpyridin-4-yl)-2-oxo-6-(trifluoromethyl)-1,2-dihydropyridine-3-carboxamide]	9440 nM
CCCc1cc(NC(=O)c2ccc(C(F)(F)F)[nH]c2=O)cc(CCC)n1 [Compound 268, N-(2,6-dipropylpyridin-4-yl)-2-oxo-6-(trifluoromethyl)-1,2-dihydropyridine-3-carboxamide]	> 10000 nM
C=CCc1cc(NC(=O)c2ccc(C(F)(F)F)[nH]c2=O)cc(/C=C/C)n1 [Compound 269, (E)-N-(2-allyl-6-(prop-1-en-1-yl)pyridin-4-yl)-2-oxo-6-(trifluoromethyl)-1,2-dihydropyridine-3-carboxamide]	5010 nM
C=CCc1cc(CC=C)cc(NC(=O)c2ccc(C(F)(F)F)[nH]c2=O)c1 [Compound 270, N-(3,5-diallylphenyl)-2-oxo-6-(trifluoromethyl)-1,2-dihydropyridine-3-carboxamide]	1390 nM
Cc1ccc2c(c1)Sc1ccccc1C2NC(=O)c1ccc(C(F)F)[nH]c1=O (centres unmarked) [Compound 275, 6-(difluoromethyl)-N-(3-methyl-9H-thioxanthen-9-yl)-2-oxo-1,2-dihydropyridine-3-carboxamide]	100 nM
Cc1ccc2c(c1)C(NC(=O)c1ccc(C(F)F)[nH]c1=O)c1ccccc1O2 (centres unmarked) [Compound 276, 6-(difluoromethyl)-N-(2-methyl-9H-xanthen-9-yl)-2-oxo-1,2-dihydropyridine-3-carboxamide]	2620 nM
